Reference: patent publication US20260226019A1, “NEGATIVE ALLOSTERIC MODULATORS OF METABOTROPIC GLUTAMATE RECEPTOR 2” (Vanderbilt University, priority 2023, published 2026)
Read-outs that look alike come from different tables or passages of the source.

Tests used:
[1] = system: group II mGlu receptors (mGlu2 and mGlu3); settings: CFS model; cited from earlier work
[2] = system: group II mGlu receptors (mGlu2 and mGlu3); settings: cited from earlier work
[3] = cited from earlier work; for antidepressant effect: helpless mice; for activity in the tail suspension test: Helpless (H) mice
[4] = dominant-submissive test; cited from earlier work
[5] = system: central mGlu2 and mGlu3 receptors; settings: target-specific manner; cited from earlier work
[6] = C57B16/J mice, FST; cited from earlier work
human mGlu2 = target: T1, human mGlu2 (Homo sapiens, UniProt Q14416); experiment: mGlu GIRK cell-based thallium flux assay, human mGlu2; settings: HEK-293 cells co-expressing human mGlu2 and GIRK, EC80 glutamate, single experiment
T1 construct: expressed in transfected cells; host or cells: HEK-293 stably co-expressing GIRK channels
T1 sequence (Q14416 19-872): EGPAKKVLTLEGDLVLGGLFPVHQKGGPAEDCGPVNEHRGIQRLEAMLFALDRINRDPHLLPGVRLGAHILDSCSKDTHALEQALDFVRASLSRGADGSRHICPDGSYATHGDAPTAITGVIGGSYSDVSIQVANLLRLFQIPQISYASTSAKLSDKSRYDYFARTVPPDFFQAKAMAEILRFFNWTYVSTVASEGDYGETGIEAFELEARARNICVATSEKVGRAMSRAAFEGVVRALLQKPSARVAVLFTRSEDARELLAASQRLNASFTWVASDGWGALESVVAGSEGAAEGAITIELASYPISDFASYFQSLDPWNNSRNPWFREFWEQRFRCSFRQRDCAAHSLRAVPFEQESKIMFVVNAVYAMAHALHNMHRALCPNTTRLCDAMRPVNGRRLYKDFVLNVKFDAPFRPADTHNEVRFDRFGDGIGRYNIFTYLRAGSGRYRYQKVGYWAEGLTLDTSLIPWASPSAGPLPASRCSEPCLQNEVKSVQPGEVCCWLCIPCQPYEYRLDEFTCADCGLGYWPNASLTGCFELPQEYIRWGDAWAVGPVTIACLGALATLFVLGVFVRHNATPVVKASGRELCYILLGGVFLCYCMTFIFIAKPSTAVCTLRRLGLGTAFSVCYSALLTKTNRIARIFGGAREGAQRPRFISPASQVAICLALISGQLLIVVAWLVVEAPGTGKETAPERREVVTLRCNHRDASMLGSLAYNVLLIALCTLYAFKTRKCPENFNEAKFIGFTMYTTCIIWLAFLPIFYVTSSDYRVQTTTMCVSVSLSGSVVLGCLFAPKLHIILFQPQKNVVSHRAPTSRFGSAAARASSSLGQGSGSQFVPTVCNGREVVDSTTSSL

human mGlu3 = target: T2, human mGlu3 (Homo sapiens, UniProt Q14832); experiment: mGlu GIRK cell-based thallium flux assay, human mGlu3; settings: HEK-293 cells co-expressing human mGlu3 and GIRK, EC80 glutamate, single experiment
T2 construct: expressed in transfected cells; host or cells: HEK-293 stably co-expressing GIRK channels
T2 sequence (Q14832 23-879): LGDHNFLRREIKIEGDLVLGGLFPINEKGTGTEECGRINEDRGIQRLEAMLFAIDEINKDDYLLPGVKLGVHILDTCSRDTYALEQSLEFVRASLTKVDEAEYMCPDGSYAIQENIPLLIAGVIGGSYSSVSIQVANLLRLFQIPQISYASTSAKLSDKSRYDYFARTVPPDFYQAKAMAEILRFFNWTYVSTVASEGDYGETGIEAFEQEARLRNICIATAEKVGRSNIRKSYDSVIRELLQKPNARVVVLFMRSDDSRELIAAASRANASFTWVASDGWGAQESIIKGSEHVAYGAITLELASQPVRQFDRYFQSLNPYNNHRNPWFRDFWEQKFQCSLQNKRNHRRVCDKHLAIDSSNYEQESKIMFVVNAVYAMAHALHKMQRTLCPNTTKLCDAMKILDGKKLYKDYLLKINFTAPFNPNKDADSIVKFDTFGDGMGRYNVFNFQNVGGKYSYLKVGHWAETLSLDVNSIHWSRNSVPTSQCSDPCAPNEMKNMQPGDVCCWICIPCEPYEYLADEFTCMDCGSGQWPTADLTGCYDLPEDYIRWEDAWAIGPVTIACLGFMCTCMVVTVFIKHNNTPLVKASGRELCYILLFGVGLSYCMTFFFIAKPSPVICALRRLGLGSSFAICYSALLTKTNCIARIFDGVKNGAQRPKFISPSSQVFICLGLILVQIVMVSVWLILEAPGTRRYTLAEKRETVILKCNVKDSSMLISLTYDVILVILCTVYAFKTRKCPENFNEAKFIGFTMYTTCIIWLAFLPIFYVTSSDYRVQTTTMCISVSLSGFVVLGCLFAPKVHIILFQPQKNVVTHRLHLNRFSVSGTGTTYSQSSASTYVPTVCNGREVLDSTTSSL
Method: Human embryonic kidney (HEK-293) cell lines stably co-expressing human or rat mGlu2 and G protein-coupled inwardly rectifying potassium (GIRK) channels, or human mGlu3 and GIRK, were used for in vitro evaluation of compound activity in thallium flux assay using a fluorescent thallium indicator dye.
The day before the assay, GIRK cells co-expressing human mGlu3, human or rat mGlu2, as described above, were plated in black-walled, clear-bottomed, amine-coated 384-well plates at a density of 15,000 cells/[…]/well in the assay medium (glutamine-depleted basal DMEM supplemented with 10% dialyzed FBS, 20 mM HEPES, 1 mM sodium pyruvate). Cells were incubated at 37° C. in the presence of 5% CO2. The next day, assay buffer (Hanks balanced salt solution, 20 mM HEPES, 4.16 mM sodium bicarbonate, pH 7.2) was prepared to dilute compounds and Thallos AM fluorescent dye solution. The 2× Thallos dye solution (final concentration 0.34 μM to the cells) was prepared by mixing the dye stock (2.97 mM in DMSO) to 1:1 with 10% pluronic acid before adding to the assay buffer. Cells were washed with assay buffer using a microplate washer to remove the medium, resulting in 20 μL of buffer remaining in each well. […] During the cell dye loading incubation period, a 10-point concentration serial dilution of compound was created from a 10 mM DMSO compound stock by performing a 1:3 serial dilution in DMSO using the Bravo liquid handler. The 2× compound plate was generated by transferring 0.24 μL of the diluted compound in each well to a daughter plate using an Echo acoustic liquid handler. This is further diluted in 40 μL assay buffer, resulting in a range from […] to 1.5 nM final concentration in the assay. The agonist plate (5×) was prepared to include EC80 glutamate concentration (a concentration to elicit 80% of a maximally effective glutamate concentration) in thallium buffer (125 mM sodium bicarbonate, 1 mM magnesium sulfate, 1.8 mM calcium sulfate, 5 mM glucose, 10 mM HEPES, pH 7.2, 12.5 mM thallium sulfate).
After dye-loading, cell plates were washed with assay buffer to remove excess extracellular dye using a microplate washer, resulting in 20 μL of buffer remaining in each well. After a ten-minute equilibration period, cell, compound and agonist plates were loaded into a Hamamatsu μCell kinetic imaging plate reader equipped with liquid handler to monitor fluorescence changes at 480 nm excitation and 540 nm emission settings. Briefly, after collection of baseline fluorescence, 20 μL of compound was added and incubated for two minutes and twenty seconds. This is immediately followed by adding 10 μL of glutamate-thallium buffer to the wells containing compound. The fluorescent signal was monitored an additional 2.5 minutes after the glutamate addition. Multiple reference wells containing no compound received either no glutamate (for a baseline reference), EC80 glutamate, or ECmax glutamate (for normalization to maximum response). […] Each compound concentration series occurred one time in each plate, and replicates from two or three plates were used in each experimental run. Thallium solutions were handled and disposed of according to guidelines from the Vanderbilt University Chemical Safety department.
Data were normalized using a static ratio function (F/F0) by dividing every fluorescent measurement by the initial fluorescent value for the corresponding well. The increase in signal resulting from the glutamate/thallium addition of the second add was measured by determining the slope from 3 seconds to 13 seconds after the addition. The average of all baseline slopes (no compound, no glutamate) was determined and this value was subtracted from all other slope values. The average of all ECmax slopes was determined and this value was used to normalize the baseline-corrected slopes to a percent max value (% Emax).

mGlu2/3 receptor [7] = settings: rat forced swim test, normal animals; cited from earlier work
mGlu2/3 receptor [8] = settings: mouse tail-suspension test, normal animals; cited from earlier work
group II mGlu receptors = settings: treated mice; cited from earlier work
mGlu2 = settings: cited from earlier work
mGlu2/3 receptor [9] = settings: learned helplessness test; treatment for 7 days; cited from earlier work
[10] = olfactory bulbectomized rats; repeated administration for 14 days; cited from earlier work
[11] = social isolation reared mice; cited from earlier work

For `COCCCC/C(=N\OCCN)c1ccc(C(F)(F)F)cc1` [fluvoxamine], the freezing behavior [1] is given as “significantly decreased”.

For `CCCCCCCOC(=O)[C@@]1(F)[C@@H]2C[C@@H](OCc3ccc(Cl)c(Cl)c3)[C@@](N)(C(=O)O)[C@@H]21` [BCI-838], the “Dutch APP transgene-associated learning and memory impairment” value ([2]; three months of treatment) is listed as “reversed”, the anxiolytic effects ([2]; three months of treatment) is listed as “anxiolytic effects” and the “levels of monomeric and oAβ peptides in the hippocampus and cortex” value ([2]; three months of treatment, two AD mouse models) is listed as “decreased”. For the same compound, the “hippocampal progenitor cell proliferation” value ([2]; wild-type and Alzheimer's diseased mice, 3 months) was “stimulated”.

For `CNCCC(Oc1ccc(C(F)(F)F)cc1)c1ccccc1` (centres unmarked) [fluoxetine], the antidepressant effect ([3]; chronic (21 days) treatment) is given as “full antidepressant effect” and the onset of effects [4] is given as “after two weeks”.

For `Cc1cc(-c2cccc(C3=Nc4cc(C)c(C(F)(F)F)cc4NC(=O)C3)c2)cc(C)n1` [Compound R04491533], the “hypolocomotor effect of mGlu2/3 agonist (LY379268)” value [5] is listed as “reversed”, the immobility time [6] is listed as “dose-dependently reduced” and the “activity in the tail suspension test” value [3] is listed as “active”.

In the case of `CN1C(=O)CN=C(c2ccccc2)c2cc(Cl)ccc21` [diazepam], the freezing behavior [1] is given as “significantly decreased”.

Work on `CC(C)n1nccc1-c1cc(-c2ccc(F)cc2F)cc2c1CNC2=O` [Compound 30, 6-(2,4-difluorophenyl)-4-(1-isopropyl-1H-pyrazol-5-yl)isoindolin-1-one] yielded an IC50 (human mGlu2) of 126 nM and an IC50 (human mGlu3) of over 10000 nM.

For `N[C@](CC1c2ccccc2Oc2ccccc21)(C(=O)O)[C@H]1C[C@@H]1C(=O)O` [LY341495], the antidepressant-like effects (mGlu2/3 receptor [7]) is listed as “Antidepressant-like effects”, the antidepressant-like effects (mGlu2/3 receptor [8]) is listed as “Antidepressant-like effects” and the “hypolocomotor effect of mGlu2/3 agonist (LY379268)” value [5] is listed as “achieved the same result”. For the same compound, the immobility time [6] was “dose-dependently reduced”, the “activity in the tail suspension test” value [3] was “active” and the antidepressant effect ([3]; acute administration) was “potent antidepressant effect”. For the same compound, the marble-burying behavior (group II mGlu receptors) was “significantly reduce” and the “LY566332 amplification of AP-induced neurodegeneration” value (mGlu2) was “prevented”.

In the case of `N[C@]1(C(=O)O)[C@H]2[C@@H](C[C@H]1OCc1ccc(Cl)c(Cl)c1)[C@]2(F)C(=O)O` [MGS0039], the antidepressant-like effects (mGlu2/3 receptor [7]) is listed as “Antidepressant-like effects”, the antidepressant-like effects (mGlu2/3 receptor [8]) is listed as “Antidepressant-like effects” and the “number of escape failures” value (mGlu2/3 receptor [9]) is listed as “significantly reduced”. For the same compound, the “hyperactivity in the open field test” value [10] was “attenuated”, the “learning deficit in the passive avoidance test” value [10] was “attenuated” and the “increased immobility in the FST” value [11] was “reversed”. For the same compound, the marble-burying behavior (group II mGlu receptors) was “reduced marble-burying behavior in a significant and dose dependent manner”, the spontaneous locomotor activity (group II mGlu receptors) was “no significant change” and the freezing behavior [1] was “significantly decreased”.

`O=C1NCc2c1cc(-c1ccc(F)cc1F)cc2-c1cccnc1N1CCCC1` [Compound 66, 6-(2,4-difluorophenyl)-4-(2-(pyrrolidin-1-yl)pyridin-3-yl)isoindolin-1-one] showed an IC50 (human mGlu2) of 528 nM and an IC50 (human mGlu3) of over 10000 nM.

In the case of `N#CC1CCCN(c2cc(-c3ccc(F)cc3F)cc3c2CNC3=O)C1` (centres unmarked) [Compound A10, 1-(6-(2,4-difluorophenyl)-1-oxoisoindolin-4-yl)piperidine-3-carbonitrile], the IC50 (human mGlu2) is reported as 386 nM and the IC50 (human mGlu3) is reported as over 10000 nM.

In the case of `CC1(C#N)CCN(c2cc(-c3ccc(F)cc3F)cc3c2CNC3=O)C1` (centres unmarked) [Compound A7, 1-(6-(2,4-difluorophenyl)-1-oxoisoindolin-4-yl)-3-methylpyrrolidine-3-carbonitrile], the IC50 (human mGlu2) is reported as 361 nM and the “Human mGlu3 GIRK IC50 (nM)” value (human mGlu3) is reported as “Inactive”.

For `O=C1NCc2c(CN3CCOCC3)cc(-c3ccc(F)cc3F)cc21` [Compound B2, 6-(2,4-difluorophenyl)-4-(morpholinomethyl)isoindolin-1-one], the IC50 (human mGlu2) was 182 nM and the IC50 (human mGlu3) was over 10000 nM.

For `Cc1nc(F)ccc1-c1cc(-c2ccc(F)cc2F)cc2c1CNC2=O` [Compound 72, 6-(2,4-difluorophenyl)-4-(6-fluoro-2-methylpyridin-3-yl)isoindolin-1-one], the IC50 (human mGlu2) was 104 nM and the IC50 (human mGlu3) was over 10000 nM.

`O=C1NCc2c1cc(-c1ccc(F)cc1F)cc2-c1ccc(F)nc1F` [Compound 73, 6-(2,4-difluorophenyl)-4-(2,6-difluoropyridin-3-yl)isoindolin-1-one] showed an IC50 (human mGlu2) of 157 nM and an IC50 (human mGlu3) of over 10000 nM.

In the case of `CCS(=O)(=O)N(Cc1cccnc1)c1cccc(-c2ccc(C#N)cc2)c1` [LY566332], the AP-induced neurodegeneration (mGlu2) is listed as “amplified”.

`O=C1NCc2c1cc(-c1ccc(F)cc1F)cc2N1CCOCC1` [Compound A4, 6-(2,4-difluorophenyl)-4-morpholinoisoindolin-1-one] showed an IC50 (human mGlu2) of 380 nM and an IC50 (human mGlu3) of over 10000 nM.

Work on `Cc1nn(CC(C)(C)O)c(C)c1-c1cc(-c2ccc(F)cc2F)cc2c1CNC2=O` [Compound 41, 6-(2,4-difluorophenyl)-4-(1-(2-hydroxy-2-methylpropyl)-3,5-dimethyl-1H-pyrazol-4-yl)isoindolin-1-one] yielded an IC50 (human mGlu2) of 435 nM and an IC50 (human mGlu3) of over 10000 nM.

In the case of `O=C1NCc2c1cc(-c1ccc(F)cc1F)cc2-c1ccc2nccn2c1` [Compound 38, 6-(2,4-difluorophenyl)-4-(imidazo[1,2-a]pyridin-6-yl)isoindolin-1-one], the IC50 (human mGlu2) is reported as 198 nM and the IC50 (human mGlu3) is reported as 6410 nM.

With `CC(C)Cn1nccc1-c1cc(-c2ccc(F)cc2F)cc2c1CNC2=O` [Compound 76, 6-(2,4-difluorophenyl)-4-(1-isobutyl-1H-pyrazol-5-yl)isoindolin-1-one] the IC50 (human mGlu2) was 179 nM and the IC50 (human mGlu3) was over 10000 nM.

In the case of `CC(C)n1nccc1-c1cc(C2=CCOCC2)cc2c1CNC2=O` [Compound 86, 6-(3,6-dihydro-2H-pyran-4-yl)-4-(1-isopropyl-1H-pyrazol-5-yl)isoindolin-1-one], the IC50 (human mGlu2) is reported as 175 nM and the “Human mGlu3 GIRK IC50 (nM)” value (human mGlu3) is reported as “Inactive”.

For `Cn1cc(-c2cc(-c3ccc(F)cc3F)cc3c2CNC3=O)cn1` [Compound 19, 6-(2,4-difluorophenyl)-4-(1-methyl-1H-pyrazol-4-yl)isoindolin-1-one], the IC50 (human mGlu2) was 181 nM and the “Human mGlu3 GIRK IC50 (nM)” value (human mGlu3) was “Inactive”.

For `O=C1NCc2c1cc(-c1ccc(F)cc1F)cc2C1CCNC1` (centres unmarked) [Compound B6, 6-(2,4-difluorophenyl)-4-(pyrrolidin-3-yl)isoindolin-1-one], the IC50 (human mGlu2) was over 10000 nM and the IC50 (human mGlu3) was over 10000 nM.

With `CC(C)n1nccc1-c1cc(C2=CCC3(CC2)OCCO3)cc2c1CNC2=O` [Compound 87, 4-(1-isopropyl-1H-pyrazol-5-yl)-6-(1,4-dioxaspiro[4.5]dec-7-en-8-yl)isoindolin-1-one] the IC50 (human mGlu2) was 3810 nM and the “Human mGlu3 GIRK IC50 (nM)” value (human mGlu3) was “Inactive”.
